The source of these data is patent US9271978B2 (Zenith Epigenetics Corp., priority 2012, dated 2016).

What all share (parameters): key: Active: Compounds with an IC50 value less than 30 μM were deemed to be active.; Not Active: Compounds with an IC50 value less than 30 μM were deemed to be active
Assay [1] deals with T1, Brd4 bromodomain 1 (BRD4(1)) (Homo sapiens, UniProt O60885).
T1 construct: Illustrative results with the first bromodomain of Brd4; made in house; host or cells: E. coli BL21 (DE3)
Description: Inhibition of tetra-acetylated histone H4 binding to Brd4 bromodomain 1 (TR-FRET). To be noted: tetra-acetylated histone H4 peptide, active = IC50 <30 μM. The method in brief:
(§1)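 N-terminally His-tagged bromodomains (200 nM), expressed in E. coli, were incubated with biotinylated tetra-acetylated histone H4 peptide (25-50 nM), Eu-cryptate streptavidin and XL665 anti-His antibody in HEPES pH 7.4 buffer with KF, 0.2% DMSO, 2 h at room temperature. Inhibition read as decreased 665/620 nm TR-FRET; IC50 from dose-response curves.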
(TR-FRET usually uses a lanthanide donor and a delayed reading to cut background.)

Assay [2] addresses T2, second bromodomain of Brd2 (BRD2(2)) (Homo sapiens, UniProt P25440).
T2 construct: made in house; host or cells: E. coli BL21 (DE3)
Put plainly: Inhibition of tetra-acetylated histone H4 binding to Brd2 bromodomain 2 (TR-FRET). The following applies: tetra-acetylated histone H4 peptide, active = IC50 <30 μM. In outline: as §1

Another assay concerns c-myc. Description: Inhibition of c-myc expression in MV4-11 cells (mRNA, real-time PCR). In kind it is cell-based. To be noted: Human AML MV4-11 cells, 3 h incubation. The protocol:
MV4-11 cells (2.5×10^4 cells) were plated in 96 well U-bottom plates with test compound or DMSO (0.1%), and incubated for 3 h at 37° C. Cells were then harvested by centrifugation, lysed, and mRNA was isolated using the mRNA catcher plus kit (Invitrogen). Reverse transcription of the mRNA and duplex amplification of the c-myc and cyclophilin cDNAs was performed using the RNA Ultrasense kit (Invitrogen) and a ViiA7 real-time PCR machine (Applied Biosystems). IC50 values were determined from a dose response curve.
In general terms: Quantitative PCR measures a nucleic acid by following its amplification.

Assay [3] has as its system human AML MV-4-11 (CRL-9591) cells. Description: Inhibition of cell proliferation in MV4-11 cells. Type of assay: cell-based. To be noted: human AML MV-4-11 cells, 72 h; active = IC50 <30 μM. The protocol:
MV4-11 cells: 96-well plates were seeded with 5×10^4 cells per well of exponentially growing human AML MV-4-11 (CRL-9591) cells and immediately treated with two-fold dilutions of test compounds, ranging from 30 μM to 0.2 μM. Triplicate wells were used for each concentration, as well as a media only and three DMSO control wells. The cells and compounds were incubated at 37° C., 5% CO2 for 72 h before adding 20 μL of the CellTiter Aqueous One Solution (Promega) to each well and incubating at 37° C., 5% CO2 for an additional 3-4 h. The absorbance was taken at 490 nm in a spectrophotometer and the percentage of proliferation relative to DMSO-treated cells was calculated after correction from the blank well. IC50 were calculated using the GraphPad Prism software.

The next assay relates to hIL-6 mRNA. Description: Inhibition of hIL-6 mRNA transcription in U937 cells. In kind it is cell-based, human. The following applies: LPS stimulation, active = IC50 <30 μM. The protocol:
In this example, hIL-6 mRNA in tissue culture cells was quantitated to measure the transcriptional inhibition of hIL-6 when treated with a compound of the present disclosure.
A human leukemic monocyte lymphoma cell line (U937) was plated (3.2×10^4 cells per well) in a 96-well plate in […] RPMI-1640 containing 10% FBS and penicillin/streptomycin, and differentiated into macrophages for 3 days in 60 ng/mL PMA ([…]) at 37° C. in 5% CO2 prior to the addition of the compound of interest. The cells were pretreated for 1 h with the test compound prior to stimulation with 1 ug/mL lipopolysaccharide from Escherichia coli. The cells were incubated at 37° C. for 3 h before the cells were harvested. At time of harvest, the spent media was removed from the cells and the cells were rinsed in […] PBS. Cell lysis solution (70 μL) was added the cells in each well and incubated for 5-10 min at room temperature, to allow for complete cell lysis and detachment. mRNA was then prepared using the “mRNA Catcher PLUS plate” (Invitrogen), according to the protocol supplied. After the last wash, as much wash buffer as possible was aspirated without allowing the wells to dry. Elution buffer (E3, 70 μL) was then added to each well. mRNA was then eluted by incubating the mRNA Catcher PLUS plate with Elution Buffer for 5 min at 68° C. and then immediately placing the plate on ice.
The eluted mRNA isolated was then used in a one-step quantitative real-time PCR reaction, using components of the Ultra Sense Kit together with Applied Biosystems primer-probe mixes. Real-time PCR data was analyzed, normalizing the Ct values for hIL-6 to an internal control, prior to determining the fold induction of each unknown sample, relative to the control.

T2 sequence (P25440 344-453 limits assumed): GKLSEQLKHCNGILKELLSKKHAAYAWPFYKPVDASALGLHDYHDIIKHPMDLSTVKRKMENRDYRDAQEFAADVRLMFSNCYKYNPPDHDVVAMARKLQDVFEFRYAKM

Consider `Cc1noc(C)c1-c1ccc(=O)n(Cc2ccccn2)n1` [Example 2, 6-(3,5-Dimethylisoxazol-4-yl)-2-(pyridin-2-ylmethyl)pyridazin-3(2H)-one], for which the “FRET activity (IC50 <30 μM) BRD4(1)” value in assay [1] is “Active”. Besides, the “FRET activity (IC50 <30 μM) BRD2(2)” value in assay [2] is “Active”. The “c-myc activity (IC50 <30 μM)” value in the assay with c-myc was “Not Active”. In addition, the “Cell Proliferation activity (IC50 <30 μM)” value (“Cell Proliferation activity” for short) in assay [3] was “Not Active”.

`Cc1noc(C)c1-c1ccc(=O)n(Cc2cccc(F)c2)n1` [Example 22, 6-(3,5-Dimethylisoxazol-4-yl)-2-(3-fluorobenzyl)pyridazin-3(2H)-one]: in assay [1], the “FRET activity (IC50 <30 μM) BRD4(1)” value is given as “Active”. Further, in assay [2], the “FRET activity (IC50 <30 μM) BRD2(2)” value was “Active”. Further, the “c-myc activity (IC50 <30 μM)” value in the assay on c-myc is on record as “Not Active”. The “Cell Proliferation activity” value in assay [3] is “Not Active”.

For the compound `Cc1noc(C)c1-c1ccc(=O)n(Cc2ccccc2Cl)n1` [Example 26, 2-(2-Chlorobenzyl)-6-(3,5-dimethylisoxazol-4-yl)pyridazin-3(2H)-one], in assay [1], the “FRET activity (IC50 <30 μM) BRD4(1)” value is “Active”. Besides, the “FRET activity (IC50 <30 μM) BRD2(2)” value in assay [2] is “Active”. Also, in assay [3], the “Cell Proliferation activity” value is on record as “Active”. Also, the “IL-6 activity (IC50 <30 μM)” value in the assay with hIL-6 mRNA is “Active”.

Take `CC(=O)Nc1cc(-c2c(C)noc2C)cn(Cc2ccccc2)c1=O` [Example 71, N-(1-Benzyl-5-(3,5-dimethylisoxazol-4-yl)-2-oxo-1,2-dihydropyridin-3-yl)acetamide]: the “FRET activity (IC50 <30 μM) BRD4(1)” value in assay [1] is reported as “Active”. Moreover, the “FRET activity (IC50 <30 μM) BRD2(2)” value in assay [2] is “Active”. For the same compound, in the assay on c-myc, the “c-myc activity (IC50 <30 μM)” value is given as “Active”.

On to `Cc1noc(C)c1-c1ccc(=O)n(Cc2ccsc2)c1` [Example 79, 5-(3,5-Dimethylisoxazol-4-yl)-1-(thiophen-3-ylmethyl)pyridin-2(1H)-one], for which the “FRET activity (IC50 <30 μM) BRD4(1)” value in assay [1] is reported as “Active”. For the same compound, in assay [2], the “FRET activity (IC50 <30 μM) BRD2(2)” value is reported as “Active”. Also, the “c-myc activity (IC50 <30 μM)” value with c-myc was “Active”. The “IL-6 activity (IC50 <30 μM)” value in the assay with hIL-6 mRNA is “Active”.

For the compound `Cc1noc(C)c1-c1cc(C)c(=O)n(Cc2ccncc2)n1` [Example 87, 6-(3,5-Dimethylisoxazol-4-yl)-4-methyl-2-(pyridin-4-ylmethyl)pyridazin-3(2H)-one], in assay [1], the “FRET activity (IC50 <30 μM) BRD4(1)” value was “Active”. Also, the “FRET activity (IC50 <30 μM) BRD2(2)” value in assay [2] is given as “Active”. Moreover, in assay [3], the “Cell Proliferation activity” value is listed as “Not Active”. Further, in the assay with hIL-6 mRNA, the “IL-6 activity (IC50 <30 μM)” value is listed as “Not Active”.

In the case of `Cc1noc(C)c1-c1ccc(=O)n(Cc2c(F)cccc2F)n1` [Example 90, 2-(2,6-Difluorobenzyl)-6-(3,5-dimethylisoxazol-4-yl)pyridazin-3(2H)-one], in assay [1], the “FRET activity (IC50 <30 μM) BRD4(1)” value is recorded as “Active”. The “FRET activity (IC50 <30 μM) BRD2(2)” value in assay [2] is given as “Active”. The “c-myc activity (IC50 <30 μM)” value with c-myc is listed as “Not Active”. Further, in assay [3], the “Cell Proliferation activity” value is listed as “Not Active”.

On to `Cc1ccccc1Cn1cc(-c2c(C)noc2C)ccc1=O` [Example 121, 5-(3,5-Dimethylisoxazol-4-yl)-1-(2-methylbenzyl)pyridin-2(1H)-one], for which the “FRET activity (IC50 <30 μM) BRD4(1)” value in assay [1] was “Active”. The “FRET activity (IC50 <30 μM) BRD2(2)” value in assay [2] is on record as “Active”. Further, the “c-myc activity (IC50 <30 μM)” value in the assay with c-myc is on record as “Active”. Also, the “IL-6 activity (IC50 <30 μM)” value in the assay with hIL-6 mRNA was “Active”.

Take `Cc1noc(C)c1-c1ccc(=O)n(Cc2ccccc2C#N)c1` [Example 135, 2-((5-(3,5-Dimethylisoxazol-4-yl)-2-oxopyridin-1(2H)-yl)methyl)benzonitrile]: the “FRET activity (IC50 <30 μM) BRD4(1)” value in assay [1] is “Active”. In addition, in assay [2], the “FRET activity (IC50 <30 μM) BRD2(2)” value is on record as “Active”. Also, the “c-myc activity (IC50 <30 μM)” value with c-myc was “Active”.

As for `COCc1noc(C)c1-c1ccc(=O)n(Cc2ccccc2)c1` [Example 187, 1-benzyl-5-(3-(methoxymethyl)-5-methylisoxazol-4-yl)pyridin-2(1H)-one], the “FRET activity (IC50 <30 μM) BRD4(1)” value in assay [1] was “Active”. Moreover, in the assay with c-myc, the “c-myc activity (IC50 <30 μM)” value was “Not Active”. In addition, the “Cell Proliferation activity” value in assay [3] is “Not Active”. The “IL-6 activity (IC50 <30 μM)” value in the assay with hIL-6 mRNA is reported as “Not Active”.

On to `Cc1noc(C)c1-c1cc(Nc2ccccc2)c(=O)n(Cc2ccc(Cl)cc2)c1` [Example 188, 1-(4-chlorobenzyl)-5-(3,5-dimethylisoxazol-4-yl)-3-(phenylamino)pyridin-2(1H)-one], for which, in assay [1], the “FRET activity (IC50 <30 μM) BRD4(1)” value was “Active”. In the assay with c-myc, the “c-myc activity (IC50 <30 μM)” value was “Not Active”. Further, the “Cell Proliferation activity” value in assay [3] is reported as “Not Active”. Besides, the “IL-6 activity (IC50 <30 μM)” value in the assay on hIL-6 mRNA was “Active”.

For `COc1cncc(Nc2cc(-c3c(C)noc3C)cn(Cc3ccccc3)c2=O)c1` [Example 231], the “FRET activity (IC50 <30 μM) BRD4(1)” value in assay [1] is reported as “Active”. Moreover, the “c-myc activity (IC50 <30 μM)” value in the assay on c-myc is listed as “Active”. Besides, the “Cell Proliferation activity” value in assay [3] was “Active”. For the same compound, the “IL-6 activity (IC50 <30 μM)” value with hIL-6 mRNA was “Active”.

Regarding `Cc1noc(C)c1-c1cc(N)c(=O)n(Cc2ccc(N3CCC3)cc2)c1` [Example 237, 3-Amino-1-(4-(azetidin-1-yl)benzyl)-5-(3,5-dimethylisoxazol-4-yl)pyridin-2(1H)-one], the “FRET activity (IC50 <30 μM) BRD4(1)” value in assay [1] is “Active”. In addition, the “c-myc activity (IC50 <30 μM)” value in the assay with c-myc is given as “Active”. The “Cell Proliferation activity” value in assay [3] is on record as “Active”. In addition, the “IL-6 activity (IC50 <30 μM)” value with hIL-6 mRNA is given as “Active”.

With `Cc1noc(C)c1-c1cc(N)c(=O)n(Cc2ccc(N3CCOCC3)cc2)c1` [Example 238, 3-Amino-5-(3,5-dimethylisoxazol-4-yl)-1-(4-morpholinobenzyl)pyridin-2(1H)-one], the “FRET activity (IC50 <30 μM) BRD4(1)” value in assay [1] was “Active”. For the same compound, the “c-myc activity (IC50 <30 μM)” value with c-myc is listed as “Active”. Also, the “Cell Proliferation activity” value in assay [3] is listed as “Active”. For the same compound, the “IL-6 activity (IC50 <30 μM)” value in the assay with hIL-6 mRNA was “Active”.

Turning to `Cc1noc(C)c1-c1cc(N)c(=O)n(Cc2ccc(Cl)cn2)c1` [Example 255, 3-amino-1-((5-chloropyridin-2-yl)methyl)-5-(3,5-dimethylisoxazol-4-yl)pyridin-2(1H)-one], in assay [1], the “FRET activity (IC50 <30 μM) BRD4(1)” value is recorded as “Active”. The “c-myc activity (IC50 <30 μM)” value in the assay on c-myc was “Active”. Further, in assay [3], the “Cell Proliferation activity” value is “Active”.

Consider `Cc1noc(C)c1-c1cc(N)c(=O)n(Cc2ccc(C#N)cc2F)c1` [Example 261, 4-((3-amino-5-(3,5-dimethylisoxazol-4-yl)-2-oxopyridin-1(2H)-yl)methyl)-3-fluorobenzonitrile], for which the “FRET activity (IC50 <30 μM) BRD4(1)” value in assay [1] is “Active”. In the assay on c-myc, the “c-myc activity (IC50 <30 μM)” value was “Active”. In addition, the “Cell Proliferation activity” value in assay [3] is recorded as “Active”.

`Cc1noc(C)c1-c1cc(N)c(=O)n(Cc2ccc(C#N)c(F)c2)c1` [Example 262, 4-((3-amino-5-(3,5-dimethylisoxazol-4-yl)-2-oxopyridin-1(2H)-yl)methyl)-2-fluorobenzonitrile]: in assay [1], the “FRET activity (IC50 <30 μM) BRD4(1)” value was “Active”. In addition, in the assay with c-myc, the “c-myc activity (IC50 <30 μM)” value was “Active”. Further, in assay [3], the “Cell Proliferation activity” value is on record as “Active”.
